Assays:
DLK = molecular target: T1, DLK (Homo sapiens, UniProt Q12852); test: DLK biochemical assay (TR-FRET, MKK7 phosphorylation); conditions: DLK catalytic domain, MKK7 substrate, 60 μM ATP
T1 construct: 10 nM DLK, catalytic domain, Carna Biosiences; purchased Carna Biosciences ('Carna Biosiences' [sic])
T1 sequence (Q12852 125-366 limits assumed): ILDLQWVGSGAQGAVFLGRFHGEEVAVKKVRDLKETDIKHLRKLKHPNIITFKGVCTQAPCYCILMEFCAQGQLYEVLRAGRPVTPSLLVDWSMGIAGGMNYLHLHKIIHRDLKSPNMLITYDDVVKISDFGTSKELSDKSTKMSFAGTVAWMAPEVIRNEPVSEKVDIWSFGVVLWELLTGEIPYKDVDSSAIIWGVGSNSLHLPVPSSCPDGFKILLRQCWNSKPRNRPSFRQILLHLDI
Description: (§1) DLK assay is a biochemical assay format designed to screen for inhibitors of DLK. Enzymatic activity of DLK is measured by monitoring phosphorylation of the physiological substrate MKK7 (MAP2K7, Dual specificity mitogen-activated protein kinase kinase 7). Phosphorylation is detected by a TR-FRET system whereby His-tagged MKK7 is labeled by a XL665-labeled anti-His antibody (FRET acceptor, emission 665 nm). DLK phosphorylates MKK7 at T275/S277, which is detected by an Eu-labeled anti-phospho-MKK7 (T275/S277) antibody (FRET donor, excitation 340 nm). Phosphorylation of MKK7 results in an increased TR-FRET signal (Ratio XL665-channel/Eu-channel) and inhibition of enzymatic activity of DLK decreases the TR-FRET signal.
All indicated concentrations are final concentrations.
(§2) Detection buffer: 25 mM Tris/HCl pH 7.5, 100 mM EDTA, 100 mM NaCl, 200 mM KF, 0.01% Tween 20, 1:500 Smart Block.

LZK = molecular target: T2, LZK (Homo sapiens, UniProt O43283); test: LZK biochemical assay (TR-FRET, MKK7 phosphorylation); conditions: LZK catalytic domain, MKK7 substrate, 15 μM ATP
T2 construct: 10 nM LZK, catalytic domain, Carna Biosiences in assay buffer; purchased Carna Biosciences ('Carna Biosiences' [sic])
T2 sequence (O43283 168-409 limits assumed): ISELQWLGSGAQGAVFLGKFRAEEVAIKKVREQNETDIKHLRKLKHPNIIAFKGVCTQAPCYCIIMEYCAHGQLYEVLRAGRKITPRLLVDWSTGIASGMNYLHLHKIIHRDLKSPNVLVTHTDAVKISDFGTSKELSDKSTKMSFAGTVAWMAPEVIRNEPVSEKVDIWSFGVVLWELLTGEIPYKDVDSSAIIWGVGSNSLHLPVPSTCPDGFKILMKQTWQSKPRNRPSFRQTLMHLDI
Description: as §1, with “LZK” for “DLK”, “LZK.” for “DLK.”, “T275/S277” for “T275/S277,”
All indicated concentrations final concentrations.
as §2

Compound | IC50 (DLK) | IC50 (LZK)
CCC(c1ccc(C(F)(F)F)nc1)n1cc(-c2cc(C(=O)N[C@H]3CCOC3)n3nc(N)nc3c2)cn1 (mixture of isomers) [Example I-177, 2-Amino-N-[(3S)-tetrahydrofuran-3-yl]-7-(1-{1-[6-(trifluoromethyl)pyridin-3-yl]propyl}-1H-pyrazol-4-yl)[1,2,4]triazolo[1,5-a]pyridine-5-carboxamide] | 2.6 nM | 18 nM
CC[C@H](C)NC(=O)c1cc(-c2cnn(C(c3ccccc3)C(C)(C)C)c2)cn2nc(N)nc12 (mixture of isomers) [Example I-34, 2-Amino-N-[(2S)-butan-2-yl]-6-{1-[2,2-dimethyl-1-phenylpropyl]-1H-pyrazol-4-yl}[1,2,4]triazolo[1,5-a]pyridine-8-carboxamide] | 9.5 nM | 520 nM
CCC(c1ccc(OCC(F)(F)F)nc1)n1cc(-c2cc(C(=O)N[C@@H](C)CC)n3nc(N)nc3c2)cn1 (single isomer, unassigned) [Example I-115] | 4.2 nM | 20 nM
CC[C@H](C)NC(=O)c1cc(-c2cnn(C(c3ccccc3)C3CC(F)(F)C3)c2)cn2nc(N)nc12 (single isomer, unassigned) [Example I-33] | 2.2 nM | 59 nM
CCC(c1ccc(C(F)F)nc1)n1cc(-c2cc(C(=O)N[C@@H](C)CC)n3nc(N)nc3c2)cn1 (single isomer, unassigned) [Example I-93] | 6.5 nM | 6.3 nM
CC[C@H](C)NC(=O)c1cc(-c2cnn(Cc3cccc4cn[nH]c34)c2)cn2nc(N)nc12 (single isomer, unassigned) [Example I-23] | 2.7 nM | 56 nM
C[C@@H](CO)NC(=O)c1cc(-c2cnn(C(c3ccc(C(F)(F)F)nc3)C3CCOCC3)c2)cn2nc(N)nc12 (single isomer, unassigned) [Example I-156, 2-Amino-N-[(25)-1-hydroxypropan-2-yl]-6-(1-{tetrahydro-2H-pyran-4-yl[6-(trifluoromethyl)pyridin-3-yl]methyl}-1H-pyrazol-4-yl)[1,2,4]triazolo[1,5-a]pyridine-8-carboxamide] | 13 nM | 23 nM
CC(CF)NC(=O)c1cc(-c2cnn(Cc3cccc4cn[nH]c34)c2)cn2nc(N)nc12 (racemic) [Example I-138, 2-Amino-N-(1-fluoropropan-2-yl)-6-{1-[(1H-indazol-7-yl)methyl]-1H-pyrazol-4-yl} [1,2,4]triazolo[1,5-a]pyridine-8-carboxamide] | 3 nM | 190 nM
CC[C@H](C)NC(=O)c1cc(-c2cnn(C(c3ccc(C(F)F)nc3)C3CC3)c2)cc2nc(N)nn12 (single isomer, unassigned) [Example I-100] | 2.8 nM | 4.3 nM
CCC(c1ccc(C(F)F)nc1)n1cc(-c2cc(C(=O)N[C@@H](C)CC)c3nc(N)nn3c2)cn1 (single isomer, unassigned) [Example I-66] | 0.8 nM | 4.1 nM
CC[C@H](C)NC(=O)c1cc(-c2cnn(C(c3c(F)cncc3F)C(C)C)c2)cc2nc(N)nn12 (mixture of isomers) [Example I-123, 2-Amino-N-[(2S)-butan-2-yl]-7-{1-[1-(3,5-difluoropyridin-4-yl)-2-methylpropyl]-1H-pyrazol-4-yl}[1,2,4]triazolo[1,5-a]pyridine-5-carboxamide] | 5.9 nM | 170 nM
CC(C)C(c1cncc(Cl)c1)n1cc(-c2cc(C(=O)NC(C)(C)CO)c3nc(N)nn3c2)cn1 (single isomer, unassigned) [Example I-173, 2-Amino-6-{1-[1-(5-chloropyridin-3-yl)-2-methylpropyl]-1H-pyrazol-4-yl}-N-(1-hydroxy-2-methylpropan-2-yl)[1,2,4]triazolo[1,5-a]pyridine-8-carboxamide] | 2 nM | 49 nM
CC(C)C(c1ccc(C(F)(F)F)nc1)n1cc(-c2cc(C(=O)N[C@H]3CCOC3)n3nc(N)nc3c2)cn1 (mixture of isomers) [Example I-180, 2-Amino-7-(1-{2-methyl-1-[6-(trifluoromethyl)pyridin-3-yl]propyl}-1H-pyrazol-4-yl)-N-[(3S)-tetrahydrofuran-3-yl][1,2,4]triazolo[1,5-a]pyridine-5-carboxamide] | 1.6 nM | 6.1 nM
CC(CF)NC(=O)c1cc(-c2cnn(C3CCOc4ccccc43)c2)cn2nc(N)nc12 (mixture of isomers) [Example I-144, 2-Amino-6-{1-(3,4-dihydro-2H-1-benzopyran-4-yl)-1H-pyrazol-4-yl}-N-[1-fluoropropan-2-yl][1,2,4]triazolo[1,5-a]pyridine-8-carboxamide] | 84 nM | 79 nM
CCC(c1ccc(N2CCOCC2)cc1)n1cc(-c2cc(C(=O)N[C@@H](C)CC)c3nc(N)nn3c2)cn1 (mixture of isomers) [Example I-47, 2-Amino-N-[(2S)-butan-2-yl]-6-(1-{1-[4-(morpholin-4-yl)phenyl]propyl}-1H-pyrazol-4-yl)[1,2,4]triazolo[1,5-a]pyridine-8-carboxamide] | 3.8 nM | 40 nM
CC[C@H](C)NC(=O)c1cc(-c2cnn(C(CC#N)C(F)(F)F)c2)cc2nc(N)nn12 (stereo partly drawn) [Example I-2] | 36 nM | 74 nM
CC(C)C(c1cncc(Cl)c1)n1cc(-c2cc(C(=O)NC(C)(C)CO)c3nc(N)nn3c2)cn1 (single isomer, unassigned) [Example I-174, 2-Amino-6-{1-[1-(5-chloropyridin-3-yl)-2-methylpropyl]-1H-pyrazol-4-yl}-N-(1-hydroxy-2-methylpropan-2-yl)[1,2,4]triazolo[1,5-a]pyridine-8-carboxamide] | 62 nM | 690 nM
CC[C@@H](c1ccc(C(F)(F)F)nc1)n1cc(-c2cc(C(=O)NC(C)(C)CO)c3nc(N)nn3c2)cn1 (single isomer, unassigned) [Example I-164, 2-Amino-N-(1-hydroxy-2-methylpropan-2-yl)-6-(1-{1-[6-(trifluoromethyl)pyridin-3-yl]propyl}-1H-pyrazol-4-yl)[1,2,4]triazolo[1,5-a]pyridine-8-carboxamide] | 6.3 nM | 52 nM
CC[C@H](C)NC(=O)c1cc(-c2cnn(C3CCCc4cnccc43)c2)cc2nc(N)nn12 (mixture of isomers) [Example I-20, 2-Amino-N-[(2S)-butan-2-yl]-7-[1-(5,6,7,8-tetrahydroisoquinolin-5-yl)-1H-pyrazol-4-yl][1,2,4]triazolo[1,5-a]pyridine-5-carboxamide] | 11 nM | 4.4 nM
CC[C@@H](c1ccc(OC(F)(F)F)nc1)n1cc(-c2cc(C(=O)NC(C)(C)CO)c3nc(N)nn3c2)cn1 (single isomer, unassigned) [Example I-170, 2-Amino-N-(1-hydroxy-2-methylpropan-2-yl)-6-(1-{1-[6-(trifluoromethoxy)pyridin-3-yl]propyl}-1H-pyrazol-4-yl)[1,2,4]triazolo[1,5-a]pyridine-8-carboxamide] | 5.5 nM | 18 nM
CC[C@H](C)NC(=O)c1cc(-c2cnn(C3CCOc4ccccc43)c2)cc2nc(N)nn12 (mixture of isomers) [Example I-16, 2-Amino-N-[(2S)-butan-2-yl]-7-[1-(3,4-dihydro-2H-chromen-4-yl)-1H-pyrazol-4-yl][1,2,4]triazolo[1,5-a]pyridine-5-carboxamide] | 22 nM | 3.3 nM

From US20230086702A1, “SUBSTITUTED 2-AMINO-PYRAZOLYL-[1,2,4]TRIAZOLO[1,5A]PYRIDINE DERIVATIVES AND USE THEREOF” (The Johns Hopkins University, priority 2019, published 2023)
